Legend:
Type in all cases: cell-based
Nox2 = target: T1, Nox2 (Homo sapiens, UniProt P04839); assay: ROS production of transiently Nox2-transfected Cos cells treated with PMA; details: 10 μM compound
T1 construct: expressed in transfected cells
T1 sequence (P04839 2-570 limits assumed): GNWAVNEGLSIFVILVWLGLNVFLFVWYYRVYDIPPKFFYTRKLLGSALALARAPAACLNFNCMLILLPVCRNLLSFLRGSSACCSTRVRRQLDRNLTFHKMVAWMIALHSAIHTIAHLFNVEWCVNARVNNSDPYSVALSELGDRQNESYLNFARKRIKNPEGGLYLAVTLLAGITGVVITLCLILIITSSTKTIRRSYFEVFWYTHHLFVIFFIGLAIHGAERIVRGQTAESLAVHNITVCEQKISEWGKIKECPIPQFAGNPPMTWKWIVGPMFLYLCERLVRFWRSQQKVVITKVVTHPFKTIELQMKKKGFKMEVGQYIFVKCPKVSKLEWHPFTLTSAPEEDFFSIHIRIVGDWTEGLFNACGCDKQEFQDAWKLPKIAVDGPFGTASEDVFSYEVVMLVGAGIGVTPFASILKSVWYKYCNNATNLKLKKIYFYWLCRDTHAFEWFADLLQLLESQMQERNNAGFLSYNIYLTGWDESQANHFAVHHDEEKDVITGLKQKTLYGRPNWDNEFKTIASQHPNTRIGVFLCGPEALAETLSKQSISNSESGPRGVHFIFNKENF
Procedure: Cell transfection was carried out using Lipofectamine LTX and Plus reagent (Invitrogen, Carlsbad, Calif., USA), according to the manufacturer's instructions. COS-22 cells were transiently co-transfected with pcDNA 3.1-hNox1, pCMVsport 6-hNOXA1 and pcDNA3.1-hNoxO1 (COS-Nox1/NOXO1/NOXA1 cells) or with pcDNA3.1/Hygro-hNox4 (COS-Nox4 cells). Cells were used 24 hr after transfection. Adherent cells were harvested by incubating with 0.05% trypsin/EDTA for 5 min at 37° C. Following addition of DMEM/10% FBS to neutralize the trypsin, the cells were pelleted by centrifugation at 1100×g for 5 min at 4° C. and used for the experiments.
Since p47^phox activation is important not only for Nox2 activity but also for Nox1 hybrid system present mainly in human endothelial cells, the effect of compounds 11g and 11h on ROS production of transiently Nox2-transfected (FIG. 13) or Nox1 hybrid system-transfected Cos cells (FIG. 14) treated with phorbol ester (PMA) was evaluated.

[1] = system: rat neonatal cardiomyocytes; assay: Hypertrophy of rat neonatal cardiomyocytes treated with high glucose; details: 25 mM glucose, 25 μM compound
Procedure: Cos-Nox2, Cos-Nox1, human fibroblasts were cultured in DMEM, 10% FBS-supplemented media, human pulmonary artery endothelial cells were cultured in EBM2media containing growth factors (Lonza) and rat neonatal cardiomyocytes were cultured in DMEM/F12 (50/50) media supplemented with 5% horse serum, 100 μM BrdU and Insulin-Transferrin-Selenium (ITS, Gibco).
Hypertrophy was assessed by measurement of cardiomyocytes length using ImageJ public domain software (developed by the National Institutes of Health).
To evaluate the pre-clinical potential of compounds 11g and 11h, the effects of high levels of glucose, which induce the generation of reactive oxygen species in cardiomyocytes and may contribute to the development of cardiomyopathy in diabetes, were evaluated. […] Furthermore, both compound 11g and compound 11h were able to reduce cardiomyocyte hypertrophy associated with high glucose challenge (FIG. 16).

[2] = target: T2, p47^phox association with Nox2 (cytochrome b558) (Homo sapiens, UniProt P14598); assay: Co-immunoprecipitation of Nox2/p47phox in Cos-Nox2 cells; details: Cos-Nox2 cells pre-incubated with compound
T2 construct: expressed in transfected cells
T2 sequence (P14598 1-390): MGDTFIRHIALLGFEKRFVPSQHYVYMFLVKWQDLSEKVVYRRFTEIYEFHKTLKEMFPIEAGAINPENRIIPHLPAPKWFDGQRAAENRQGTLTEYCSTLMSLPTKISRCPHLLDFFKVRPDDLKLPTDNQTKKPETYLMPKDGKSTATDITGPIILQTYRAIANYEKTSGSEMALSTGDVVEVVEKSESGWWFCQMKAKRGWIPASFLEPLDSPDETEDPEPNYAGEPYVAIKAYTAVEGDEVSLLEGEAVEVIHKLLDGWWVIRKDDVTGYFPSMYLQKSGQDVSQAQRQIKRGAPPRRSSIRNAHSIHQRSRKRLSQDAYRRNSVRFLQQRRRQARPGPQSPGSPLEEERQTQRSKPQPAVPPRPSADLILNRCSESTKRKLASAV
Procedure: 300 μg of cell homogenates were diluted in 0.3 ml HBSS buffer and incubated with 1.25 μg of α-p47^phox antibody (Santa Cruz Biotechnology). After overnight incubation at 4° C. with constant agitation, 10 μl of Protein G-Agarose slurry were added to each sample to pull-down p47^phox: antibody complex. Beads were washed, boiled, run on PAGE-SDS gels and then blotted on nitrocellulose membrane. Western blot analysis was carried out using antibodies against p47^phox and Nox2. Bands were visualized using Odyssey software from Licor and then quantified using ImageJ software.
To interrogate a mode of Nox2 inhibition, in silico interaction analysis of pre-existing atomic structures was employed. […] To further investigate this type of interaction and inhibition, co-immunoprecipitation was used and p47^phox association with cytochrome b558 in Cos-Nox2 cells.

SMILES	PMA-stimulated ROS production, Nox2-transfected Cos cells (Nox2)	Cardiomyocyte hypertrophy with high glucose challenge [1]	Attenuation of PMA-promoted p47phox/Nox2 interaction (co-immunoprecipitation) [2] [%]
C=C(C)CC1C2c3c(Br)cccc3C(CC2(C)C)N1CCCCC (racemic) [Compound 11g, (±)-(1S,4R,9S)-5-Bromo-3,3-dimethyl-9-(2-methylallyl-10-pentyl-1,2,3,4-tetrahydro-1,4-(epiminomethano)naphthalene]	inhibited	reduce	34.3±6.07
C=C(C)CC1C2c3c(Br)cccc3C(CC2(C)C)N1Cc1cccs1 (racemic) [Compound 11h, (±)-(1S,4R,9S)-5-Bromo-3,3-dimethyl-9-(2-methylallyl)-10-(thiophen-2-ylmethyl)-1,2,3,4-tetrahydro-1,4-(epiminomethano)naphthalene]	–	reduce	33.45±6.08

Reference: US10906876B2, “Tetrahydroisoquinolines as selective NADPH oxidase 2 inhibitors” (University of Pittsburgh—Of the Commonwealth System of …, priority 2013, dated 2021)
